This is an account of results in patent US20230234942A1, “COMPOUNDS FOR TREATING HUNTINGTON'S DISEASE” (PTC Therapeutics, Inc., priority 2020, published 2023).

The subject of one test is Endogenous Huntingtin Protein. As to the kind of experiment: Endogenous Huntingtin Protein Assay (ELISA-based MSD electrochemiluminescence). The test is classed as cell-based. To be noted: Table 2; MSD plates coated with MW1 (expanded polyglutamine) or MAB2166 capture antibody; "inactive" = result above the detection limit of the assay. In short, it runs like this:
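Endogenous huntingtin measured on MSD plates coated with MW1 (polyglutamine-expanded) or MAB2166 capture antibody; lysates bound overnight at 4 °C. Signal developed with #56565 rabbit monoclonal and goat anti-rabbit SULFO-TAG (0.25 µg/mL, 1 h RT each), electrochemiluminescence read on SI 6000.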
With `Cn1cc(-c2ccc(-c3cnc(N4CCN[C@@H](C(C)(C)C)C4)nn3)c(O)c2)cn1` [Cpd 21, 2-{3-[(3S)-3-tert-butylpiperazin-1-yl]-1,2,4-triazin-6-yl]-5-(1-methyl-1H-pyrazol-4-yl)phenol], the concentration for half-maximal inhibition (IC50) was determined as 20.8 nM. Turning to `[2H]C([2H])([2H])n1cc(-c2ccc(-c3cnc(N4CCN[C@@H](C(C)C)C4)nn3)c(O)c2)cn1` [Cpd 47, 5-[1-(Hz)methyl-1H-pyrazol-4-yl]-2-{3-[(3S)-3-(propan-2-yl)piperazin-1-yl]-1,2,4-triazin-6-yl}phenol], the IC50 turned out to be 154 nM. The compound `Oc1cc(-c2cn[nH]c2)ccc1-c1cnc(N2CCNC(CC(F)(F)F)C2)nn1` (stereo not drawn) [Cpd 146, 5-(1H-pyrazol-4-yl)-2-{3-[3-(2,2,2-trifluoroethyl)piperazin-1-yl]-1,2,4-triazin-6-yl}phenol] showed an IC50 of 539 nM. Take `COc1cc(-c2ccc(-c3cnc(N4CCN[C@@H](C(C)C)C4)nn3)c(O)c2)cc(C)n1` [Cpd 271, 5-(2-methoxy-6-methylpyridin-4-yl)-2-{3-[(3S)-3-(propan-2-yl)piperazin-1-yl]-1,2,4-triazin-6-yl}phenol]: the IC50 turned out to be 943 nM.

Compound `Cc1cn2nc(-c3ccc(-c4cnc(N5C[C@@H](C)N(C)[C@@H](C)C5)nn4)c(O)c3)cc(C#N)c2n1` [Cpd 108, 6-(3-hydroxy-4-{3-[(3R,5S)-3,4,5-trimethylpiperazin-1-yl]-1,2,4-triazin-6-yl]phenyl)-2-methylimidazo[1,2-b]pyridazine-8-carbonitrile] registered an IC50 of 19.8 nM. As to `CC(C)[C@@H]1CN(c2ncc(-c3ccc(-c4cn[nH]c4)cc3O)nn2)CCN1` [Cpd 40, 2-{3-[(3R)-3-(propan-2-yl)piperazin-1-yl]-1,2,4-triazin-6-yl}-5-(1H-pyrazol-4-yl)phenol], the IC50 turned out to be 68.2 nM. Regarding `Oc1cc(-c2cn3ncnc3cn2)ccc1-c1cnc(N2CCN[C@@H](C3CC3)C2)nn1` [Cpd 130, 2-{3-[(3S)-3-cyclopropylpiperazin-1-yl]-1,2,4-triazin-6-yl}-5-([1,2,4]triazolo[1,5-a]pyrazin-6-yl)phenol], the IC50 stood at 12 nM. On the same count and under the same terms, the same measure for `COc1cc(-c2ccc(-c3cnc(N4C[C@@H](C5CC5)N[C@@H](C)C4)nn3)c(O)c2)nc(OC)n1` [Cpd 220, 2-{3-[(3R,5S)-3-cyclopropyl-5-methylpiperazin-1-yl]-1,2,4-triazin-6-yl}-5-(2,6-dimethoxypyrimidin-4-yl)phenol]: 88.3 nM; for `Cn1nc2cc(-c3ccc(-c4cnc(N5CCN[C@H](C6(C)CC6)C5)nn4)c(O)c3)cnc2n1` [Cpd 242, 2-{3-[(3R)-3-(1-methylcyclopropyl)piperazin-1-yl]-1,2,4-triazin-6-yl}-5-(2-methyl-2H-[1,2,3]triazolo[4,5-b]pyridin-6-yl)phenol]: 106 nM. In the case of `Cc1cnn(-c2ccc(-c3cnc(N4CCN[C@H](C5CC5)C4)nn3)c(O)c2)n1` [Cpd 183, 2-{3-[(3R)-3-cyclopropylpiperazin-1-yl]-1,2,4-triazin-6-yl}-5-(4-methyl-2H-1,2,3-triazol-2-yl)phenol], the IC50 was determined as 18.8 nM.

As to `Cc1cn2nc(-c3ccc(-c4cnc(N5C[C@@H](C)N(C)[C@@H](C)C5)nn4)c(O)c3)cc(C)c2n1` [Cpd 111, 5-(2,8-dimethylimidazo[1,2-b]pyridazin-6-yl)-2-{3-[(3R,5S)-3,4,5-trimethylpiperazin-1-yl]-1,2,4-triazin-6-yl}phenol], it took 27.5 nM to reach half-maximal inhibition (IC50). Compound `Oc1cc(-c2ccsn2)ccc1-c1cnc(N2CCN[C@@H](C3CC3)C2)nn1` [Cpd 252, 2-{3-[(3S)-3-cyclopropylpiperazin-1-yl]-1,2,4-triazin-6-yl}-5-(1,2-thiazol-3-yl)phenol] displayed an IC50 of 16.5 nM.

As to `Cc1cn2cc(-c3ccc(-c4cnc(N5CCN(C)CC5)nn4)c(O)c3)cc(F)c2n1` [Cpd 73, 5-(8-fluoro-2-methylimidazo[1,2-a]pyridin-6-yl)-2-[3-(4-methylpiperazin-1-yl)-1,2,4-triazin-6-yl]phenol], the IC50 is 4.1 nM. Compound `CC(C)[C@H]1CN(c2ncc(-c3ccc(-c4cn[nH]c4)cc3O)nn2)CCN1` [Cpd 20, 2-{3-[(3S)-3-(propan-2-yl)piperazin-1-yl]-1,2,4-triazin-6-yl}-5-(1H-pyrazol-4-yl)phenol] registered an IC50 of 17.1 nM.

Turning to `C[C@H]1CN(c2ncc(-c3ccc(-c4cn[nH]c4)cc3O)nn2)[C@@H](C)CN1` [Cpd 176, 2-{3-[(2S,5S)-2,5-dimethylpiperazin-1-yl]-1,2,4-triazin-6-yl}-5-(1H-pyrazol-4-yl)phenol], inhibition was half-maximal at 619 nM (IC50).

For `Cc1nnn2cc(-c3ccc(-c4cnc(N5C[C@@H](C)N[C@@H](C)C5)nn4)c(O)c3)ccc12` [Cpd 206, 2-{3-[rac-(3R,5S)-3,5-dimethylpiperazin-1-yl]-1,2,4-triazin-6-yl}-5-(3-methyl[1,2,3]triazolo[1,5-a]pyridin-6-yl)phenol], the IC50 was 33.7 nM. For the compound `CNc1ccc(-c2ccc(-c3cnc(N4CCN[C@@H](C5CC5)C4)nn3)c(O)c2)cc1` [Cpd 179, 4-{3-[(3S)-3-cyclopropylpiperazin-1-yl]-1,2,4-triazin-6-yl}-4‘-(methylamino)[1,1‘-biphenyl]-3-ol], the IC50 amounted to 113 nM. In turn, `CCN1CCN(c2ncc(-c3ccc(-c4cc(F)c5nc(C)cn5c4)cc3O)nn2)CC1` [Cpd 77, 2-[3-(4-ethylpiperazin-1-yl)-1,2,4-triazin-6-yl]-5-(8-fluoro-2-methylimidazo[1,2-a]pyridin-6-yl)phenol] returned an IC50 of 4.9 nM. Regarding `[2H]C([2H])([2H])n1cc(-c2cc(O)c(-c3cnc(N4CCN[C@@H](C(C)(C)C)C4)nn3)cc2F)cn1` [Cpd 156, 2-{3-[(3S)-3-tert-butylpiperazin-1-yl]-1,2,4-triazin-6-yl}-4-fluoro-5-[1-(^2H3)methyl-1H-pyrazol-4-yl]phenol], 12.5 nM corresponded to half-maximal inhibition (IC50). Turning to `Oc1cc(-c2cn[nH]c2)ccc1-c1cnc(N2CCN(C3CC3)CC2)nn1` [Cpd 63, 2-[3-(4-cyclopropylpiperazin-1-yl)-1,2,4-triazin-6-yl]-5-(1H-pyrazol-4-yl)phenol], the “IC50 (nM)” value is “inactive”. As for `COc1cc(-c2ccc(-c3cnc(N4CCN[C@@H](C(C)C)C4)nn3)c(O)c2)nc(OC)n1` [Cpd 207, 5-(2,6-dimethoxypyrimidin-4-yl)-2-{3-[(3S)-3-(propan-2-yl)piperazin-1-yl]-1,2,4-triazin-6-yl}phenol], the IC50 is 10 nM. Still for that read-out and setting: the same measure for `CC[C@H]1CN(c2ncc(-c3ccc(-c4cc(OC)ncn4)cc3O)nn2)C[C@@H](C)N1` [Cpd 234, 2-{3-[(3S,5R)-3-ethyl-5-methylpiperazin-1-yl]-1,2,4-triazin-6-yl}-5-(6-methoxypyrimidin-4-yl)phenol]: 8.7 nM; for `Cn1nnc2ccc(-c3ccc(-c4cnc(N5CCN[C@@H](C6CC6)C5)nn4)c(O)c3)nc21` [Cpd 173, 2-{3-[(3S)-3-cyclopropylpiperazin-1-yl]-1,2,4-triazin-6-yl}-5-(3-methyl-3H-[1,2,3]triazolo[4,5-b]pyridin-5-yl)phenol]: 21.3 nM.

On to `CC[C@H]1CN(c2ncc(-c3ccc(-c4ccnc(OC)c4)cc3O)nn2)C[C@@H](C)N1` (single isomer, unassigned) [Cpd 266, 2-{3-[(3S,5R)-3-ethyl-5-methylpiperazin-1-yl]-1,2,4-triazin-6-yl}-5-(2-methoxypyridin-4-yl)phenol or 2-{3-[(3R,5S)-3-ethyl-5-methylpiperazin-1-yl]-1,2,4-triazin-6-yl}-5-(2-methoxypyridin-4-yl)phenol], for which the IC50 was 19.4 nM. `CC(C)[C@H]1CN(c2ncc(-c3ccc(-c4nc(C(F)F)cs4)cc3O)nn2)CCN1` [Cpd 186, 5-[4-(difluoromethyl)-1,3-thiazol-2-yl]-2-{3-[(3S)-3-(propan-2-yl)piperazin-1-yl]-1,2,4-triazin-6-yl}phenol] came in with an IC50 of 77.7 nM. The compound `Oc1cc(-c2ccncc2F)ccc1-c1cnc(N2CCN[C@@H](C3CC3)C2)nn1` [Cpd 178, 2-{3-[(3S)-3-cyclopropylpiperazin-1-yl]-1,2,4-triazin-6-yl}-5-(3-fluoropyridin-4-yl)phenol] came in with an IC50 of 300 nM. On to `COc1cc(-c2cnc(-c3cnc(N4CCN(C)CC4)nn3)c(O)c2)cc2cn(C)nc12` [Cpd 121, 5-(7-methoxy-2-methyl-2H-indazol-5-yl)-2-[3-(4-methylpiperazin-1-yl)-1,2,4-triazin-6-yl]pyridin-3-ol], for which the IC50 was determined as 16.1 nM.

`CC(C)(C)[C@H]1CN(c2ncc(-c3ccc(-c4c[nH]nc4F)cc3O)nn2)CCN1` [Cpd 125, 2-{3-[(3S)-3-tert-butylpiperazin-1-yl]-1,2,4-triazin-6-yl}-5-(3-fluoro-1H-pyrazol-4-yl)phenol] showed an IC50 of 7.3 nM. `[2H]C([2H])([2H])Oc1cc(-c2ccc(-c3cnc(N4CCN[C@@H](C(C)(C)C)C4)nn3)c(O)c2)ncn1` [Cpd 17, 2-{3-[(3S)-3-tert-butylpiperazin-1-yl]-1,2,4-triazin-6-yl}-5-{6-[(^2H3)methyloxy]pyrimidin-4-yl}phenol] had an IC50 of 14.1 nM. With `CC(C)(C)[C@H]1CN(c2ncc(-c3ccc(-c4cn[nH]c4)cc3O)nn2)CCN1` [Cpd 16, 2-{3-[(3S)-3-tert-butylpiperazin-1-yl]-1,2,4-triazin-6-yl}-5-(1H-pyrazol-4-yl)phenol], half-maximal inhibition (IC50) was put at 13.2 nM. On to `CC(C)[C@H]1CN(c2ncc(-c3ccc(-c4cn(C)nn4)cc3O)nn2)CCN1` [Cpd 260, 5-(1-methyl-1H-1,2,3-triazol-4-yl)-2-{3-[(3S)-3-(propan-2-yl)piperazin-1-yl]-1,2,4-triazin-6-yl}phenol], for which half-maximal inhibition (IC50) was put at 417 nM. Compared with the last compound, the IC50 is about 32-fold higher. On the same count and under the same terms, under `CC1(C)CN(c2ncc(-c3ccc(-c4cn[nH]c4)cc3O)nn2)CCN1` [Cpd 56, 2-[3-(3,3-dimethylpiperazin-1-yl)-1,2,4-triazin-6-yl]-5-(1H-pyrazol-4-yl)phenol] stands 654 nM.

The test is the same for the next values; noted with them: Table 3; selected compounds from WO/2019/191229 A1, same MSD assay.
The compound `C[C@@H]1CN(c2ncc(-c3ccc(-c4ccc5nccn5n4)cc3O)nn2)C[C@H](C)N1` [WO/2019/191229 A1 Cpd 385, reference compound] had an IC50 of 33.1 nM.
